Usually Tmax stands for the time from dosing to the highest level.

The structures appear in SMILES notation. Active and inactive are the calls of the source. The calls are words filed in the database; no cut-off is given here.

Data set [1] concerns the target T1, Interferon regulatory factor 3 (Mus musculus) (UniProt P70671).
T1 sequence (whole entry): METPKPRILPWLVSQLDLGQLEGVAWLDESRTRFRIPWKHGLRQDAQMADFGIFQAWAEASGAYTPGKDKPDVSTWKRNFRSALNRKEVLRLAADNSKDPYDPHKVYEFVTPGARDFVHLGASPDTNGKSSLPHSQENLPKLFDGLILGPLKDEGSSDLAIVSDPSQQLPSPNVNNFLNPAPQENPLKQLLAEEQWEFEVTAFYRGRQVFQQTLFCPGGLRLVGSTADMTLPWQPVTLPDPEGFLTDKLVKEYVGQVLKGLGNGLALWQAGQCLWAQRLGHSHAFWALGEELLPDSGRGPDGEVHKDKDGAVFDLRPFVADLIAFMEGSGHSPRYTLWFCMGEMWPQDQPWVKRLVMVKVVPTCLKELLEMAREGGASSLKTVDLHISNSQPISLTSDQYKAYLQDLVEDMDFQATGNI
The data set can be described thus: Inhibition of IRF3 phosphorylation in LPS-induced mouse RAW264.7 cells preincubated with compound for 2 hrs followed by LPS stimulation and measured after 6 hrs by Western blot analysis. Type of data set: cell-based. The settings on record: dose 0.5-2 µM, time 8.0 hrs. (A western blot detects proteins with antibodies after separation by electrophoresis.)

The next data set deals with Mus musculus. The data set can be described thus: Protective activity against LPS induced sepsis in BALB/c mouse model of acute liver injury assessed as reduction in ALT level in serum at 1.25 to 5 mg/kg, IG administered once a day for 3 days followed by LPS stimulation for 12 hrs starting from 2 hrs post last dose by ELISA. In kind it is functional, organism-based. The conditions noted are these: dose 1.25-5 mg/kg, time 86.0 hrs.

Data set [2] can be described thus: Tmax in Sprague-Dawley rat administered intragastrically. Type of data set: ADME. The settings on record: in vivo, po, route ig.

With `C=CCONC(=O)CCSSCCC(=O)O[C@@H]1CC[C@@]2(C)[C@@H](CC[C@@]3(C)[C@H]2[C@H](O)C[C@H]2/C(=C(\CCC=C(C)C)C(=O)OCc4ccccc4)[C@@H](OC(C)=O)C[C@@]23C)[C@@H]1C`, the inhibition result in data set [1] was “Dose-Dependent Effect”. In addition, in the data set on Mus musculus, the result was Active. The Tmax in data set [2] is 1 h.

(Values after ChEMBL document CHEMBL5247586, “Discovery of fusidic acid derivatives as novel STING inhibitors for treatment of sepsis” (Eur J Med Chem, 2022).)
